Paper PMC8840081, “Phenylalanine-Based AMPA Receptor Antagonist as the Anticonvulsant Agent with Neuroprotective Activity—In Vitro and In Vivo Studies” (Molecules, 2022)

Experiments:
Human MAO-B = molecular target: T1, Human MAO-B (Homo sapiens, UniProt P27338); assay: MAO-B inhibition, Amplex Red Monoamine Oxidase kit; assay type: biochemical
T1 construct: purchased Merck KGaA (Darmstadt, Germany)
T1 sequence (P27338 1-520): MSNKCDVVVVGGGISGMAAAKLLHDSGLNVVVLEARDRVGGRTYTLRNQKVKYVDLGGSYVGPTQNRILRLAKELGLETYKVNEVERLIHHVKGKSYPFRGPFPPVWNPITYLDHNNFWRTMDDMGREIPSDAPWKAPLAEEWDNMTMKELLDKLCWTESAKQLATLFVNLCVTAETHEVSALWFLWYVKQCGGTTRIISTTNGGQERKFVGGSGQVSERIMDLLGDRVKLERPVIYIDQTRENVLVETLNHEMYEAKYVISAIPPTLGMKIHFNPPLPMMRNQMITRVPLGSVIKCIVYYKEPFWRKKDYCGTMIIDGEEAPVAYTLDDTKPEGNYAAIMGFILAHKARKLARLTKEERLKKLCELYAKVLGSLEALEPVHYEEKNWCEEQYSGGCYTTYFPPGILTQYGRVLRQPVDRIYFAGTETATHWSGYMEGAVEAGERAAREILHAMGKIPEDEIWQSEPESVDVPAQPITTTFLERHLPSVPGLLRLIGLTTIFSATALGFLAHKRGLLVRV
Procedure: Human MAO-B was purchased from Merck KGaA (Darmstadt, Germany). The activity of compound 1 and 8 was measured in the presence of p-tyramine (200 μM). […] Firstly, inhibitors’ activity was measured in a concentration of 1 μM. […] For compounds that inhibited the enzyme by more than 50% further studies were conducted to obtain IC50 from concentration–response curves. All calculations were made in Microsoft Excel and GraphPadPrism software. All experiments were performed in duplicate and data are expressed as mean ± SEM.

[1] = system: cold hyperalgesia in oxaliplatin-treated mice; assay: oxaliplatin-induced neuropathic pain model, cold plate test; assay type: in vivo; details: 10 and 30 mg/kg i.p., early and late phase
Procedure: (§1) Behavioral experiments were carried out in male Albino Swiss (CD-1) mice weighing 18–22 g. The mice were kept in cages, in groups of 10 animals. They had free access to food and water before experiments, and were maintained at room temperature 22–24 °C, under 12:12 (light/dark) cycle. For the assays the animals were selected randomly. After the experiments the animals were euthanized by cervical dislocation. Experimental procedures for in vivo tests were approved by the Local Ethics Committee of the Jagiellonian University in Krakow (Approval No. 33/2018; release date: 1.02.2018) and the treatment of animals was performed in full accordance with ethical standards laid down in respective Polish and EU regulations (Directive 2010/63/EU).
Oxaliplatin was purchased from Activate Scientific GmbH (Prien, Germany). PTZ and STZ were provided by Merck KGaA (Darmstadt, Germany). For the in vivo tests, the compound 1 was suspended in 1% Tween 80 solution (Polskie Odczynniki Chemiczne, Gliwice, Poland), then being administered intraperitoneally 1 h before tests. For the evaluation of anticonvulsant properties of the test compound, a fixed dose of 100 mg/kg, was used. Since many AEDs at lower doses are used as analgesic drugs, for pain tests the doses 10 and 30 mg/kg were selected. […]
The effect of 1 on cold pain threshold was assessed using the cold plate test. […]

SH-SY5Y cells = assay: ROS assay (DCFH-DA), H2O2-induced ROS accumulation; assay type: cell-based, human; details: compound 50 µM, 500 µM H2O2, 3 h
Procedure: (§2) All cell culture protocols and assay conditions were applied as we reported previously. SH-SY5Y (ATCC® CRL-2266™) cell line was purchased from ATCC (Manassas, VA, USA). IMR-32 (ATCC® CCL-127™) cell line was kindly provided by the Department of Oncogenomics, Academisch Medisch Centrum, Amsterdam, Holland. Before each test SH-SY5Y or IMR-32 cells were seeded in 96-well plates with transparent bottom at a concentration of 2.5 × 10^4 cells/well in 100 μL of respective cell culture medium and cultured for 24 h to reach 70% confluence. • Cell Viability
During this assay SH-SY5Y cells were preincubated first for 1 h with 250 μM solution of DCFH-DA (Sigma-Aldrich, Inc., St. Louis, MO, USA) in HBSS buffer. After DCFH-DA was removed, cells were washed with HBSS and incubated next for 1 h with 50 μM of compound 1 or 8. Next, the H2O2 was added at final concentration 500 μM. After 3 h of incubation, the fluorescence was measured using a microplate reader EnSpire (PerkinElmer, Waltham, MA, USA) with an excitation wavelength of 486 nm and emission wavelength of 530 nm. All measurements were performed in triplicate and results are shown as mean ± SD.

[2] = system: PTZ-induced clonic seizures in mice; assay: PTZ seizure test; assay type: in vivo; details: PTZ 100 mg/kg s.c.; compound 100 mg/kg i.p.
Procedure: as §1
Oxaliplatin was purchased from Activate Scientific GmbH (Prien, Germany). PTZ and STZ were provided by Merck KGaA (Darmstadt, Germany). For the in vivo tests, the compound 1 was suspended in 1% Tween 80 solution (Polskie Odczynniki Chemiczne, Gliwice, Poland), then being administered intraperitoneally 1 h before tests. […]
This test was carried out according to the method recently described. […] In this assay the latency to the occurrence of the first clonic seizure episode was measured and compared in drug-treated and control mice. […] The number of seizure episodes was also recorded in each group. • 6-Hz Test

[3] = system: IMR-32 neuroblastoma cells; assay: cell viability, MTS assay; assay type: cell-based, human; details: IMR-32, 24 h incubation, 1–100 µM
Procedure: as §2
(§3) The CellTiter 96® AQueous Non-Radioactive Cell Proliferation Assay was purchased from Promega (Madison, WI, USA). After 24 h of cells incubation with compound 1 or 8 in the concentrations range 1–100 µM the MTS-based labeling mixture was added to each well and cells were incubated under the same conditions for 2–3 h. The absorbance was measured using a microplate reader EnSpire (PerkinElmer, Waltham, MA, USA) at 490 nm. All measurements were performed in triplicate and results are shown as mean ± SD. • Lactate Dehydrogenase Test

[4] = system: SH-SY5Y neuroblastoma cells; assay: cell viability, MTS assay; assay type: cell-based, human; details: 24 h incubation, 1–100 µM
Procedure: as §2, §3

native AMPA receptors = details: cited from earlier work

## NC(Cc1cc(-c2cc(O)ccc2O)c(Cl)c([N+](=O)[O-])c1)C(=O)O (centres unmarked) [Compound 1]
Human MAO-B; dose-dependent curve
  maximum MAO-B inhibition attained: 52%
Human MAO-B; p-tyramine 200 μM
  IC50: 278 ± 29 nM
Human MAO-B; read-out: MAO-B inhibition, screening
  inhibition at 1 µM: > 50%
[1]
  effect on cold hyperalgesia, cold plate test: unable to attenuate cold hyperalgesia
SH-SY5Y cells
  intracellular ROS level: statistically significant decrease
[2]
  latency to first clonus: not able to prolong latency to the first clonus
  number of seizure episodes: remained unaffected
[3]
  cell viability: no influence on cell viability
[4]
  cell viability: no influence on cell viability
Native AMPA receptors
  selectivity over NMDA and KA receptors: high selectivity
Native AMPA receptors; native AMPA receptors, rat brain membranes, mean of three experiments, read-out: [3H]AMPA Ki
  Ki: 920 nM
